How the values were obtained:
Format in all cases: in vitro ADME
[1] = Plasma protein binding (equilibrium dialysis), rat; settings: for fraction unbound: equilibrium dialysis, read-out: PPB (%), rat (converted); for recovery: plasma (undiluted, freshly thawed), PPB assay recovery
Method: (§1) The assay was performed in a multiple-use 96-well dialysis unit (HTD96b dialyzer). Each individual well unit consisted of 2 chambers separated by a vertically aligned dialysis membrane of predetermined pore size (MWCO 12-14 kDa). 120 μl of non-diluted freshly thawed mouse, rat or human plasma spiked with the compound (1 μM, final DMSO concentration 1%) was added to one chamber and the same volume of PBS buffer pH 7.4 to the other chamber. HTD96b dialyzer was covered with adhesive sealing film and incubated at 37° C., shaking at 100 rpm for 5 hours.
(§2) For samples preparation, an aliquot of the content of each chamber had been mixed with the same volume of the blank opposite matrix. In order to define non-specific loss of the compound during this assay, a standard solution was created by mixing an aliquot of spiked plasma with blank buffer without dialysis. Samples were diluted 10-fold with 100% acetonitrile with subsequent plasma proteins sedimentation by centrifuging at 6000 rpm for 5 minutes. Supernatants were analyzed using HPLC system coupled with tandem mass spectrometer (API3000 PE Sciex). Acquisition and analysis of the data were performed using Analyst 1.5.2 software (PE Sciex). The percentage of plasma protein bound compound and recovery were calculated using following equations: […]
Prior to the start of the experiment, dialysis membranes (membrane strips, MW cut-off 12-14 kDa, HTDialysis, Cat.NoJl 101) are soaked in deionized water for 60 min, transferred and left overnight in 20% EtOH. The day of experiment, a 10 mM stock solution of the compound in DMSO is diluted with a factor 10 in DMSO. This solution is further diluted in freshly thawed human, rat, mouse or dog plasma (BioIVT) with a final concentration of 5 μM and final DMSO concentration of 0.5%.
From this solution, an aliquot of 50 μL was taken and matrix matched with an equivalent volume of PBS for the recovery plate, after which 6 volumes of STOP solution were added to the recovery plate. For these recovery plates, no incubation is done.
Equilibrium Dialysis Device (96-well, model HTD96b, HTDialysis, Cat. No. #1006) is assembled according to manufacturer's instructions. Immediately after assembly, a volume of 100 μL of plasma (spiked with compound) is placed on one side of the well and another 100 μL of blank PBS buffer are added to the other side, respectively. Each compound is tested in duplicate. Acebutolol and Nicardipine are used as low and very high binding controls, except for the mouse, Caffeine is used as low binder instead Acebutolol. If the PPB values for these controls are not in the range determined by the historical data, the assay is not validated.
The plate is incubated for 4 h at 37° C. while shaking at 230 rpm. Thereafter, an aliquot of 50 μL is taken from each side of the well and matrix matched (mix of equal volumes of spiked plasma with blank PBS buffer and samples from buffer compartment with blank plasma). Matrix matched samples are further mixed with 3 volumes of STOP solution (acetonitrile/MeOH 2/1 with diclofenac as internal standard). After brief mixing and centrifugation (at 2400 rpm for 15 min, at +4° C.), the supernatant is filtered and transferred into new 96-well plates for analysis on LC-MS/MS (systems API4000).
(§3) The percentage of plasma protein bound compound and recovery were calculated using following equations:
(§4) with: • Cplasma=peak area of the compound in the plasma/peak area of the IS in the plasma • Cbuffer=peak area of the compound in the buffer/peak area of the IS in the buffer • ‘Concentration’ is the ratio between compound and IS peak areas
The recovery is a control, which allows to be sure that the compound has not a non-specific binding to the plates or is not stable in the plasma in these conditions: […]

[2] = Plasma protein binding (equilibrium dialysis), human; settings: for fraction unbound: equilibrium dialysis, read-out: PPB (%), human (converted); for recovery: plasma (undiluted, freshly thawed), PPB assay recovery
Method: as §1, §2, §3, §4
(§5) The recovery is a control, which allows to be sure that the compound has not a non-specific binding to the plates or is not stable in the plasma in these conditions:
(§6) with: • PBS=(ratio of the peak area of the compound/peak area of the IS) in the PBS compartment after 4 h • Plasma=(ratio of the peak area of the compound/peak area of IS) in the plasma compartment after 4 h • Recov=Recovery=ratio of the peak are of the compound I the well recovery/peak area of the IS in the well recovery at TO
(§7) The solubility of the compound in the final test concentration in PBS is checked by microscope to indicate whether precipitation is observed or not. If a precipitate is observed, no data of PPB is generated.

[3] = Plasma protein binding (equilibrium dialysis), mouse; settings: for fraction unbound: equilibrium dialysis, read-out: PPB (%), mouse (converted); for recovery: plasma (undiluted, freshly thawed), PPB assay recovery
Method: as §1, §2, §3, §4, §5, §6, §7

| SMILES | fraction unbound [1] | recovery [1] [%] | fraction unbound [2] | recovery [2] [%] | fraction unbound [3] | recovery [3] [%] |
| --- | --- | --- | --- | --- | --- | --- |
| CC(C)Cc1cc(F)c(-c2nn[nH]n2)c(N2CCN(Cc3cccnn3)C(C)C2)c1 (stereo not shown) [Compound A-173, 3-[[4-[3-fluoro-5-isobutyl-2-(2H-tetrazol-5-yl)phenyl]-2-methyl-piperazin-1-yl]methyl]pyridazine] | 0.19 | 100 | 0.05 | 94 | 0.12 | 92 |
| CC(C)Cc1ccc(-c2nn[nH]n2)c(N2CCN(Cc3nc4ccccc4c(=O)[nH]3)CC2)c1 [Compound A-31, 2-[[4-[5-isobutyl-2-(2H-tetrazol-5-yl)phenyl]piperazin-1-yl]methyl]-3H-quinazolin-4-one] | < 0.1 | 84 | < 0.08 | 82 | < 0.05 | 88 |
| CCC1CN(c2cc(CC(C)C)cc(F)c2-c2nn[nH]n2)CCN1Cc1cccnn1 (stereo not shown) [Compound A-178, 3-[[2-ethyl-4-[3-fluoro-5-isobutyl-2-(2H-tetrazol-5-yl)phenyl]piperazin-1-yl]methyl]pyridazine] | 0.12 | 96 | 0.04 | 99 | 0.1 | 93 |
| CC(C)Cc1ccc(-c2nn[nH]n2)c(N2CCN(Cc3cccnn3)CC2)c1 [Compound A-90, 3-[[4-[5-isobutyl-2-(2H-tetrazol-5-yl)phenyl]piperazin-1-yl]methyl]pyridazine] | 0.23 | 105 | 0.05 | 83 | 0.22 | 97 |
| CC(C)Cc1cc(F)c(-c2nn[nH]n2)c(N2CCN(Cc3cccnn3)[C@@H](C)C2)c1 [Compound A-174, 3-[[(2S)-4-[3-fluoro-5-isobutyl-2-(2H-tetrazol-5-yl)phenyl]-2-methyl-piperazin-1-yl]methyl]pyridazine] | 0.017 | 90 | 0.026 | 99 | 0.027 | 95 |

Second part, the molecule after the results:

| fraction unbound [1] | recovery [1] [%] | fraction unbound [2] | recovery [2] [%] | fraction unbound [3] | recovery [3] [%] | SMILES |
| --- | --- | --- | --- | --- | --- | --- |
| 0.004 | 98 | 0.004 | 100 |  |  | CC(C)Cc1cc(F)c(-c2nn[nH]n2)c(N2CCN(Cc3ccccn3)[C@@H](C)C2)c1 [Compound A-217, (2S)-4-[3-fluoro-5-isobutyl-2-(2H-tetrazol-5-yl)phenyl]-2-methyl-1-(2-pyridylmethyl)piperazine] |
| 0.12 | 96 | 0.03 | 95 | 0.07 | 96 | CCC1CN(Cc2cccnn2)CCN1c1cc(CC(C)C)cc(F)c1-c1nn[nH]n1 (stereo not shown) [Compound A-181, 3-[[3-ethyl-4-[3-fluoro-5-isobutyl-2-(2H-tetrazol-5-yl)phenyl]piperazin-1-yl]methyl]pyridazine] |
| 0.23 | 92 | 0.06 | 96 | 0.13 | 90 | CC(C)Cc1cc(F)c(-c2nn[nH]n2)c(N2CC(C)N(Cc3cccnn3)CC2C)c1 (stereo not shown) [Compound A-183, 3-[[4-[3-fluoro-5-isobutyl-2-(2H-tetrazol-5-yl)phen-yl]-2,5-dimethyl-piperazin-1-yl]-methyl]pyridazine] |

— patent US20240368133A1, “Compounds for the Treatment of Pain, in Particular, Neuropathic Pain, and/or Other Diseases or Disorders that are Associated with AT2R and/or AT2R Mediated Signaling” (Confo Therapeutics N.V., priority 2021, published 2024)
